These results are taken from ChEMBL document CHEMBL1201862, “PubChem BioAssay data set” (2004).

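Step 1: Grow cells in 96-well plates. Step 2: Expose to compound for 48 hours at 5 concentrations. Step 3: Interpolate endpoints linearly; if unreached, use highest concentration. GI50 is the concentration that inhibits growth by half.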 The source made the active and inactive calls. Rule as the data show it: active = GI50 up to about 1.1 µM and inactive = higher.

Some test systems named below: IGROV-1; UACC-257; BT-549; 786-0; OVCAR-4; UACC-62; MCF7; ACHN; T47D; SR; OVCAR-5; HL-60; SNB-75; EKVX; U-251; TK-10; NCI-H460; NCI-H522; HOP-92.
Test in all cases: NCI-60 cell line screen, 48 h

As to `CC1=C(c2ccccc2)NC(=S)C(C)C(c2ccccc2)=N1` (centres undefined), the GI50 in the test with IGROV-1 is 36.9 µM (inactive); with UACC-257 it was 28.8 µM (inactive); in the test on BT-549, 23.7 µM (inactive); in the test on 786-0, 74.5 µM (inactive); with OVCAR-4, 17.2 µM (inactive); in the test with UACC-62 it was 33.7 µM (inactive). Moreover, the GI50 was 27 µM (inactive) in the test with MCF7; 11.7 µM (inactive) in the test with ACHN; 15.8 µM (inactive) with T47D; 22 µM (inactive) in the test on SR; > 100 µM (inactive) in the test with OVCAR-5; 12.6 µM (inactive) with HL-60. In addition, the GI50 was 65.6 µM (inactive) in the test with SNB-75; 42.3 µM (inactive) in the test on EKVX; 55.6 µM (inactive) with U-251; 58.2 µM (inactive) with TK-10; 34.4 µM (inactive) in the test on NCI-H460.
On to `COC(=O)C1Cc2cc3c(cc2C1=O)CCC3` (centres undefined), for which the GI50 with NCI-H522 is > 100 µM (inactive); with IGROV-1, > 100 µM (inactive); in the test on UACC-257 it was > 100 µM (inactive); with BT-549, > 100 µM (inactive); with 786-0, > 100 µM (inactive); in the test with OVCAR-4 it was 42.1 µM (inactive). In addition, the GI50 in the test with UACC-62, with MCF7, with ACHN, in the test with T47D, in the test on SR and with OVCAR-5 was > 100 µM (inactive) in each case. In addition, the GI50 in the test on HL-60, in the test with SNB-75, with EKVX, in the test on U-251, in the test with TK-10 and in the test on NCI-H460 was > 100 µM (inactive) each time.
Turning to `C=CCCCC1SC2=C(CC)CCCN2C1=O` (centres undefined), the GI50 in the test with NCI-H522 was 35.1 µM (inactive); in the test on IGROV-1 it was > 100 µM (inactive); with UACC-257, 27.6 µM (inactive); in the test with BT-549 it was 46.3 µM (inactive); in the test on 786-0, > 100 µM (inactive); with OVCAR-4 it was 65.6 µM (inactive). Further, the GI50 in the test on UACC-62 was 81.3 µM (inactive); in the test on MCF7, 42.7 µM (inactive); in the test with ACHN it was 89.1 µM (inactive); in the test with T47D, 32.5 µM (inactive); in the test on HOP-92, 36.9 µM (inactive); with SR, 57.7 µM (inactive). In addition, the GI50 in the test with OVCAR-5 was > 100 µM (inactive); in the test on HL-60, 34.4 µM (inactive); in the test with EKVX it was 78.7 µM (inactive); with U-251, 85.1 µM (inactive); in the test on TK-10 it was 84.3 µM (inactive).
With `CCN1C(NCCO)=NS(=O)(=O)c2ccccc21`, the GI50 in the test on NCI-H522, in the test on IGROV-1, with UACC-257, with BT-549, in the test on 786-0 and in the test with OVCAR-4 was > 100 µM (inactive) in each case. Further, the GI50 in the test on UACC-62, in the test with MCF7, in the test on ACHN, in the test on T47D, with HOP-92 and in the test with SR was > 100 µM (inactive) each time. The GI50 in the test on OVCAR-5, with HL-60, in the test on EKVX, in the test on U-251, in the test with TK-10 and with NCI-H460 was > 100 µM (inactive) throughout.
For `CC(C)(C)OC(=O)NCC(O)CNC(=O)OC(C)(C)C`, the GI50 in the test with NCI-H522, with IGROV-1, with UACC-257, in the test with BT-549, with 786-0 and in the test on OVCAR-4 was > 100 µM (inactive) in each case. For the same compound, the GI50 in the test with UACC-62, with MCF7, in the test with ACHN, in the test on T47D, in the test on HOP-92 and in the test with SR was > 100 µM (inactive) each time. Also, the GI50 with OVCAR-5, in the test with HL-60, in the test with EKVX, with U-251, with TK-10 and with NCI-H460 was > 100 µM (inactive) throughout.
For `O=C1CCCCC(=O)OC2(CCCCC2=O)CC1` (centres undefined), the GI50 in the test with NCI-H522, in the test on IGROV-1, with UACC-257, in the test with BT-549, in the test with 786-0 and in the test on OVCAR-4 was > 100 µM (inactive) throughout. The GI50 with UACC-62, in the test on MCF7, in the test on ACHN, in the test on T47D, with HOP-92 and in the test with SR was > 100 µM (inactive) throughout. Also, the GI50 is > 100 µM (inactive) in the test on OVCAR-5; 5.82 µM (inactive) with SNB-75; > 100 µM (inactive) in the test on U-251; > 100 µM (inactive) in the test with TK-10; > 100 µM (inactive) in the test with NCI-H460.
Take `CC(C)(C)OC(=O)Cn1ncn(NC(=O)Cc2ccccc2)c1=O`: the GI50 in the test on NCI-H522, with IGROV-1, in the test with UACC-257, in the test with BT-549, in the test on 786-0 and in the test on OVCAR-4 was > 10 µM (inactive) each time. The GI50 in the test with UACC-62, in the test with MCF7, with ACHN, in the test with T47D, in the test on HOP-92 and in the test on SR was > 10 µM (inactive) each time. Further, the GI50 in the test with OVCAR-5, with EKVX, with U-251, in the test on TK-10 and with NCI-H460 was > 10 µM (inactive) throughout.
Consider `CC(CC(=O)N1C2CC3CCC2(CS1(=O)=O)C3(C)C)[Si](C)(C)C` (centres undefined), for which the GI50 in the test with NCI-H522, in the test with IGROV-1, in the test with UACC-257, with BT-549, with 786-0 and in the test on MCF7 was > 100 µM (inactive) each time. Also, the GI50 in the test with ACHN, with T47D, in the test with SR, in the test on HL-60, in the test with SNB-75 and in the test with EKVX was > 100 µM (inactive) throughout. The GI50 with U-251, in the test on TK-10 and in the test with NCI-H460 was > 100 µM (inactive) each time.
As to `CCN(CC)CCC(=O)/C=C/c1ccc(Cl)c(Cl)c1`, the GI50 with NCI-H522 was 1.58 µM (inactive); with UACC-257, > 10 µM (inactive); in the test on BT-549, 4.49 µM (inactive); with 786-0 it was 3.31 µM (inactive); with OVCAR-4 it was 9.35 µM (inactive); in the test on MCF7, 3.36 µM (inactive). The GI50 was 3.03 µM (inactive) with ACHN; 2.33 µM (inactive) in the test with T47D; > 10 µM (inactive) in the test on HOP-92; 2.83 µM (inactive) in the test with SR; 7.93 µM (inactive) with OVCAR-5; 0.302 µM (active) in the test on HL-60. For the same compound, the GI50 with EKVX was > 10 µM (inactive); with U-251, 4.76 µM (inactive); in the test with TK-10 it was 2.65 µM (inactive); in the test on NCI-H460 it was 4.94 µM (inactive).
As to `CN(/N=C/c1ccc(OCc2cccc(COc3ccc(C=O)cc3)n2)cc1)c1cnn(-c2ccc(Cl)cc2Cl)c(=O)c1Cl`, the GI50 in the test on NCI-H522 was > 100 µM (inactive); in the test on IGROV-1, 62.5 µM (inactive); in the test on UACC-257, > 100 µM (inactive); in the test with BT-549, 66.7 µM (inactive); with 786-0, 81.8 µM (inactive); in the test with OVCAR-4, 6.9 µM (inactive). Also, the GI50 in the test on UACC-62 was > 100 µM (inactive); with MCF7, > 100 µM (inactive); in the test on ACHN, 73.5 µM (inactive); with T47D, > 100 µM (inactive); in the test on SR it was > 100 µM (inactive); with OVCAR-5 it was > 100 µM (inactive). Besides, the GI50 was > 100 µM (inactive) with HL-60; 11.4 µM (inactive) in the test with SNB-75; 16 µM (inactive) with EKVX; 26.9 µM (inactive) in the test on U-251; 64.9 µM (inactive) in the test on TK-10; > 100 µM (inactive) in the test on NCI-H460.
As to `C=C1C(C[C@@H]2O[C@H]3C[C@H]4O[C@@]5(C[C@@H]6O[C@]7(C[C@H](C)[C@@H]8O[C@@H]9CC(C(O)CO)O[C@@H]9C[C@@H]8O7)C[C@H](C)[C@@H]6O5)C[C@H]4O[C@H]3[C@H](C)[C@H]2O)O[C@@H](CC[C@@H]2O[C@@H](CC[C@@]34CC5O[C@H]6C(O[C@H]7CC[C@H](CC(=O)OC)O[C@@H]7[C@@H]6O3)[C@H]5O4)CC2=C)C[C@H]1C` (some centres undefined), the GI50 with NCI-H522 is < 0.0001 µM (active); in the test with IGROV-1 it was < 0.0001 µM (active); in the test on UACC-257 it was < 0.0001 µM (active); with BT-549, < 0.0001 µM (active); with 786-0, < 0.0001 µM (active); in the test with OVCAR-4, 0.998 µM (active). The GI50 in the test on UACC-62 is < 0.0001 µM (active); in the test with MCF7, < 0.0001 µM (active); in the test with ACHN it was 0.000658 µM (active); in the test on T47D, 0.01 µM (active); in the test with SR, < 0.0001 µM (active); in the test on OVCAR-5 it was 0.00142 µM (active). Further, the GI50 in the test on HL-60 is < 0.0001 µM (active); with SNB-75 it was 0.000154 µM (active); with EKVX, 0.000405 µM (active); in the test on U-251, < 0.0001 µM (active); in the test on TK-10, 0.0152 µM (active); in the test on NCI-H460, < 0.0001 µM (active).
